Data from PubChem BioAssay AID256 (DTP/NCI, 2004).
Values joined by “and” are separate entries in the source; they are usually repeats but may differ in a detail not shown here. Equal values may be shown once. Inconclusive results and toxic doses are left out. How the source made its calls: active means survival T/C of 150% or more; inactive means T/C below 125% in these data.

Test system: CD2F1 mice, L1210 leukemia ip, survival T/C
Test: NCI In Vivo Anticancer Drug Screen. Data for tumor model L1210 Leukemia (intraperitoneal) in CD2F1 (CDF1) mice
Conditions: endpoint: mean survival time, higher = longer survival
Summary of the method: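 In this screen, transplantable tumors were grown in mice given either the compound or its vehicle. Results were expressed as the treated measurement relative to the control measurement.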

[1] = dose: 100.0 mg/kg/injection, schedule: Q01DX009 (ip), vehicle: saline with Tween-80
[2] = dose: 200.0 mg/kg/injection, schedule: Q01DX009 (ip), vehicle: saline with Tween-80
[3] = dose: 400.0 mg/kg/injection, schedule: Q01DX009 (ip), vehicle: saline with Tween-80
[4] = dose: 12.5 mg/kg/injection, schedule: Q01DX005 (ip), vehicle: water
[5] = dose: 25.0 mg/kg/injection, schedule: Q01DX005 (ip), vehicle: water
[6] = dose: 50.0 mg/kg/injection, schedule: Q01DX005 (ip), vehicle: water
[7] = dose: 100.0 mg/kg/injection, schedule: Q04DX003 (ip), vehicle: saline
[8] = dose: 200.0 mg/kg/injection, schedule: Q04DX003 (ip), vehicle: saline
[9] = dose: 400.0 mg/kg/injection, schedule: Q04DX003 (ip), vehicle: saline
[10] = dose: 100.0 mg/kg/injection, schedule: Q04DX002 (ip), vehicle: saline with Tween-80
[11] = dose: 400.0 mg/kg/injection, schedule: Q04DX002 (ip), vehicle: saline with Tween-80

Measured: T/C

O=C(C1=CCCCC1)c1ccc(-c2ccccc2)cc1
inactive: [1] 102 % of control | dose: 100.0 mg/kg/injection, schedule: Q04DX003 (ip), vehicle: saline with Tween-80 95 % of control | [2] 91 % of control | dose: 200.0 mg/kg/injection, schedule: Q04DX003 (ip), vehicle: saline with Tween-80 95 % of control | [3] 96 % of control | dose: 400.0 mg/kg/injection, schedule: Q04DX003 (ip), vehicle: saline with Tween-80 93 % of control

NCCc1nc[nH]c1[N+](=O)[O-]
inactive: [4] 106 % of control | [5] 97 % of control | [6] 97 % of control | dose: 100.0 mg/kg/injection, schedule: Q01DX005 (ip), vehicle: water 103 % of control | dose: 200.0 mg/kg/injection, schedule: Q01DX005 (ip), vehicle: water 92 % of control

O=C1OCCCC1O (configuration not stated)
inactive: dose: 150.0 mg/kg/injection, schedule: Q01DX001 (ip), vehicle: saline 97 % of control

CC1(C)N=C(N)N=C(N)N1c1ccc(OCCCNC(=O)Nc2cccc(S(=O)(=O)F)c2)c(Cl)c1
inactive: dose: 100.0 mg/kg/injection, schedule: Q01DX009 (ip), vehicle: saline 116 % of control | dose: 200.0 mg/kg/injection, schedule: Q01DX009 (ip), vehicle: saline 92 % of control

COCCNP(=O)(OC(C)C)OC(C)C
inactive: [7] 100 % of control | [8] 97 % of control | [9] 101 % of control

O=c1nc(-c2ccccc2)c(-c2ccccc2)n[nH]1
inactive: [7] 97 % of control | [8] 94 % of control

[N-]=[N+]=NCc1cn(C2CC(O)C(CO)O2)c(=O)[nH]c1=O (configuration not stated)
inactive: dose: 6.25 mg/kg/injection, schedule: Q01DX005 (ip), vehicle: water 91 % of control | [4] 111 % of control | [5] 103 % of control | [6] 100 % of control

CCOC(=O)Nc1cc(F)c(F)cc1F
inactive: [1] 98 % of control | [2] 98 % of control

NC(=O)c1ncc(-c2ccccc2)[nH]c1=O
inactive: [7] 93 % of control | [8] 98 % of control | [9] 102 % of control

N#Cc1ncn(C2OC(CO)C(O)C2O)c1N (configuration not stated)
inactive: [10] 102 % of control | dose: 200.0 mg/kg/injection, schedule: Q04DX002 (ip), vehicle: saline with Tween-80 105 % of control | [11] 109 % of control

CCCCCCCCCCCCCCCCCCOCCOCCOCCOCCO
inactive: dose: 25.0 mg/kg/injection, schedule: Q04DX002 (ip), vehicle: saline with Tween-80 91 % of control | dose: 50.0 mg/kg/injection, schedule: Q04DX002 (ip), vehicle: saline with Tween-80 100 % of control | [10] 94 % of control | [11] 94 % of control

CCOC(=O)C(C)CN(CC(C)C(=O)OCC)C(C)(C)C (configuration not stated)
inactive: dose: 100.0 mg/kg/injection, schedule: Q01DX001 (ip), vehicle: saline with Tween-80 112 % of control | dose: 200.0 mg/kg/injection, schedule: Q01DX001 (ip), vehicle: saline with Tween-80 100 % of control

CC(=O)/C(N=Nc1ccc(S(=O)(=O)c2ccc(N=N/C(C(C)=O)=C(/C)O)cc2)cc1)=C(\C)O
inactive: [1] 86 % of control | [2] 86 % of control | [3] 102 % of control

CCCCCCCCCCCCCCCCCC[n+]1cccc(C(=O)c2ccccc2)c1
inactive: dose: 9.38 mg/kg/injection, schedule: Q01DX001 (ip), vehicle: other 100 % of control | dose: 18.75 mg/kg/injection, schedule: Q01DX001 (ip), vehicle: other 108 % of control

C[N+](C)(C)/N=C/C=C/c1ccccc1
inactive: dose: 12.5 mg/kg/injection, schedule: Q01DX009 (ip), vehicle: saline with Tween-80 104 % of control | dose: 25.0 mg/kg/injection, schedule: Q01DX009 (ip), vehicle: saline with Tween-80 104 % of control | dose: 50.0 mg/kg/injection, schedule: Q01DX009 (ip), vehicle: saline with Tween-80 96 % of control and 107 % of control

CCCCCCCCC1SC1CCCCCCCC(=O)OCCOCCOCC (configuration not stated)
inactive: dose: 100.0 mg/kg/injection, schedule: Q04DX003 (ip), vehicle: Klucel (hydroxypropylcellulose) (HPC) 104 % of control | dose: 200.0 mg/kg/injection, schedule: Q04DX003 (ip), vehicle: Klucel (hydroxypropylcellulose) (HPC) 104 % of control | dose: 400.0 mg/kg/injection, schedule: Q04DX003 (ip), vehicle: Klucel (hydroxypropylcellulose) (HPC) 102 % of control

CCCCCCCCCCCCNC(=O)c1cc[n+](C)cc1
inactive: dose: 12.5 mg/kg/injection, schedule: Q01DX009 (ip), vehicle: saline 95 % of control | dose: 12.5 mg/kg/injection, schedule: Q04DX003 (ip), vehicle: saline 98 % of control | dose: 25.0 mg/kg/injection, schedule: Q04DX003 (ip), vehicle: saline 95 % of control | dose: 50.0 mg/kg/injection, schedule: Q04DX003 (ip), vehicle: saline 94 % of control
